Laboratory results taken from US8729081B2, “Compositions and methods for treating alcohol use disorders, pain and other diseases” (VM Discovery Inc., priority 2008, dated 2014).

How the values were obtained:
Experiment in all cases: Kinase profiling
Format in all cases: biochemical
Akt1 = target: T1, Akt1 (Homo sapiens, UniProt P31749)
T1 construct: purchased Reaction Biology Corp
Description: [The procedure below names another target; the source lists this target under the same test.] (§1) Kinase profiling was performed using HotSpot technology (Reaction Biology Corp. 11 Malvern, Pa., USA). This technology is a radioisotope-based P81 filter-binding assay. Compound of the present invention were dissolved in pure DMSO to make a 10 mM stock, then diluted in pure DMSO to make a serial dilution based on the IC50 ranges. PKCε (h) (0.4 nM, human recombinant protein expressed in insect cells. Mw=83.7 kDa) and substrate (20 μM peptide substrate, [RFARKGSLRQKNV]) were diluted in the reaction buffer (20 mM HEPES-HCl, pH 7.5, 10 mM MgCl2, 1 mM EGTA, 0.02% Brij35, 0.1 mM Na3VO4, 0.02 mg/ml BSA, 2 mM DTT, and 1% DMSO), and then 5 nL of compound was delivered into PKCε (h) and substrate mixture by acoustic technology using Echo 550 (LabCyte Inc., Sunnyvale, Calif.). The reaction was initiated by the addition of [γ-33P-ATP] into the reaction mixture (final concentration was 10 μM) and stopped after at least 40 min incubation at room temperature. The unreacted free 33P-ATP was washed away before detection.

CAMKIIa_alpha = target: T2, CAMKIIa_alpha (Homo sapiens, UniProt Q9UQM7)
T2 construct: purchased Reaction Biology Corp
Description: [The procedure below names another target; the source lists this target under the same test.] as §1

CDK1/cyclinB = target: T3, CDK1/cyclinB (Homo sapiens, UniProt P06493)
T3 construct: purchased Reaction Biology Corp
Description: [The procedure below names another target; the source lists this target under the same test.] as §1

FYN = target: T4, FYN (Homo sapiens, UniProt P06241)
T4 construct: purchased Reaction Biology Corp
Description: [The procedure below names another target; the source lists this target under the same test.] as §1

MEK1 = target: T5, MEK1 (Homo sapiens, UniProt Q02750)
T5 construct: purchased Reaction Biology Corp
Description: [The procedure below names another target; the source lists this target under the same test.] as §1

PDPK1 = target: T6, PDPK1 (Homo sapiens, UniProt O15530)
T6 construct: purchased Reaction Biology Corp
Description: [The procedure below names another target; the source lists this target under the same test.] as §1

PKA = target: T7, PKA (Homo sapiens, UniProt P17612)
T7 construct: purchased Reaction Biology Corp
Description: [The procedure below names another target; the source lists this target under the same test.] as §1

PKCalpha = target: T8, PKCalpha (Homo sapiens, UniProt P17252)
T8 construct: purchased Reaction Biology Corp
Description: [The procedure below names another target; the source lists this target under the same test.] as §1

PKCbeta1 = target: T9, PKCbeta1 (Homo sapiens, UniProt P05771)
T9 construct: purchased Reaction Biology Corp
Description: [The procedure below names another target; the source lists this target under the same test.] as §1

PKCbeta2 = target: T10, PKCbeta2 (Homo sapiens, UniProt P05771)
T10 construct: purchased Reaction Biology Corp
Description: [The procedure below names another target; the source lists this target under the same test.] as §1

PKCdelta = target: T11, PKCdelta (Homo sapiens, UniProt Q05655)
T11 construct: purchased Reaction Biology Corp
Description: [The procedure below names another target; the source lists this target under the same test.] as §1

PKCeta = target: T12, PKCeta (Homo sapiens, UniProt P24723)
T12 construct: purchased Reaction Biology Corp
Description: [The procedure below names another target; the source lists this target under the same test.] as §1

PKCgamma = target: T13, PKCgamma (Homo sapiens, UniProt P05129)
T13 construct: purchased Reaction Biology Corp
Description: [The procedure below names another target; the source lists this target under the same test.] as §1

PKCiota = target: T14, PKCiota (Homo sapiens, UniProt P41743)
T14 construct: purchased Reaction Biology Corp
Description: [The procedure below names another target; the source lists this target under the same test.] as §1

PKCmu = target: T15, PKCmu (Homo sapiens, UniProt Q15139)
T15 construct: purchased Reaction Biology Corp
Description: [The procedure below names another target; the source lists this target under the same test.] as §1

PKCtheta = target: T16, PKCtheta (Homo sapiens, UniProt Q04759)
T16 construct: purchased Reaction Biology Corp
Description: [The procedure below names another target; the source lists this target under the same test.] as §1

PKCzeta = target: T17, PKCzeta (Homo sapiens, UniProt Q05513)
T17 construct: purchased Reaction Biology Corp
Description: [The procedure below names another target; the source lists this target under the same test.] as §1

ROCK1 = target: T18, ROCK1 (Homo sapiens, UniProt Q13464)
T18 construct: purchased Reaction Biology Corp
Description: [The procedure below names another target; the source lists this target under the same test.] as §1

RSK1 = target: T19, RSK1 (Homo sapiens, UniProt Q15418)
T19 construct: purchased Reaction Biology Corp
Description: [The procedure below names another target; the source lists this target under the same test.] as §1

TrkA = target: T20, TrkA (Homo sapiens, UniProt P04629)
T20 construct: purchased Reaction Biology Corp
Description: [The procedure below names another target; the source lists this target under the same test.] as §1

cMET = target: T21, cMET (Homo sapiens, UniProt P08581)
T21 construct: purchased Reaction Biology Corp
Description: [The procedure below names another target; the source lists this target under the same test.] as §1

Measured: IC50

T6 sequence (O15530 whole entry): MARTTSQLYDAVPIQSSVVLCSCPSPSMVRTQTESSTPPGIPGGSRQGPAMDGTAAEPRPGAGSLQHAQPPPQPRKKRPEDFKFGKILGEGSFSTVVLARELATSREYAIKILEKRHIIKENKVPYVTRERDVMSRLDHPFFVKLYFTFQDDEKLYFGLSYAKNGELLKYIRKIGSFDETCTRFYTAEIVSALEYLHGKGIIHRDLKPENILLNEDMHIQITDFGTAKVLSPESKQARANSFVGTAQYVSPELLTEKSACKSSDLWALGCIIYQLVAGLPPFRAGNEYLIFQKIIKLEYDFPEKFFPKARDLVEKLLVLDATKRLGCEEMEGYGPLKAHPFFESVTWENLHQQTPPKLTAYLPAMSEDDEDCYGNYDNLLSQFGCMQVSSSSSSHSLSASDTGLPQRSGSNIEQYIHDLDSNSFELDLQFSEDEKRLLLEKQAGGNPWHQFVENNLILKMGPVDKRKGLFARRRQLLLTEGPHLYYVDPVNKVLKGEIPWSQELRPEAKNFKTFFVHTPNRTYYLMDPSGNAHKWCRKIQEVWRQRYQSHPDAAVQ
T2 sequence (Q9UQM7 whole entry): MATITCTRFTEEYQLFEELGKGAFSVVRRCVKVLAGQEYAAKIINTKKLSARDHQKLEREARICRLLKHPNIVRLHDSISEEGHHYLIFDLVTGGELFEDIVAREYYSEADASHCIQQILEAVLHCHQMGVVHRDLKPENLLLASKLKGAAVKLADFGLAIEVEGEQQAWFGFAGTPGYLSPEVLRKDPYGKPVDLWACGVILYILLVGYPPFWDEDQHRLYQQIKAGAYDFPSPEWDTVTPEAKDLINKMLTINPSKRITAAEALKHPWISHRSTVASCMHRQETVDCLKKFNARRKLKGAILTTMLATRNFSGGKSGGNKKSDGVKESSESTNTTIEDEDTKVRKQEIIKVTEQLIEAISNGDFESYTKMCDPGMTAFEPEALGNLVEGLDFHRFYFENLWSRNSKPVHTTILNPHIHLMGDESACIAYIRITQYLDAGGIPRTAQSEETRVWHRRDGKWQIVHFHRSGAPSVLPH
T12 sequence (P24723 whole entry): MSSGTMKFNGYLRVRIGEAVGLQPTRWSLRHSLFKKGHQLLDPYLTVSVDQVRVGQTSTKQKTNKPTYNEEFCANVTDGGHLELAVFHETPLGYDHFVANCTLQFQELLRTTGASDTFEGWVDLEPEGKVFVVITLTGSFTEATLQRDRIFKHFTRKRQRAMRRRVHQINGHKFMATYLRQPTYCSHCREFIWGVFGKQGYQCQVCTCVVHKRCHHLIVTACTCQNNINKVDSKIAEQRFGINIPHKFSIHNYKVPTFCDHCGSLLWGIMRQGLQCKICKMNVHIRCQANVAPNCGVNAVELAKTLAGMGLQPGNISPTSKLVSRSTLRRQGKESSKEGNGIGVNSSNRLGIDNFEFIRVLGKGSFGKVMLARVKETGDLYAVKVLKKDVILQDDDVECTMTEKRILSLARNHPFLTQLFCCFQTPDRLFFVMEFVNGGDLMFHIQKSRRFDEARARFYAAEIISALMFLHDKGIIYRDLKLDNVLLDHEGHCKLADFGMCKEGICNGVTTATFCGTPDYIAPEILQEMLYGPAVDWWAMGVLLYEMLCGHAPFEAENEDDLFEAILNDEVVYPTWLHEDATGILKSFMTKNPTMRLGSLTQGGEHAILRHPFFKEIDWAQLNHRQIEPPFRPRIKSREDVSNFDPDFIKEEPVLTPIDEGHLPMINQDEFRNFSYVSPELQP
T5 sequence (Q02750 whole entry): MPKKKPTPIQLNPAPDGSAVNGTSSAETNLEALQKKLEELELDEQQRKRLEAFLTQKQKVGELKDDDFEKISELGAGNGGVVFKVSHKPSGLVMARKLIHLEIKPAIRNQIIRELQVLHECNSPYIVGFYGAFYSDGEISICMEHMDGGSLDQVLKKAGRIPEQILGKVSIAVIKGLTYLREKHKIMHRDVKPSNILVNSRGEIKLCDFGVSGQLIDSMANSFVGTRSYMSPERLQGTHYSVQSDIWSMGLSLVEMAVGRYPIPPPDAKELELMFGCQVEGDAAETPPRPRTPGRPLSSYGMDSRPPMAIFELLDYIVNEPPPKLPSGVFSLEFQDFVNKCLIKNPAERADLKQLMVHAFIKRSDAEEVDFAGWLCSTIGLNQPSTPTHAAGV
T14 sequence (P41743 whole entry): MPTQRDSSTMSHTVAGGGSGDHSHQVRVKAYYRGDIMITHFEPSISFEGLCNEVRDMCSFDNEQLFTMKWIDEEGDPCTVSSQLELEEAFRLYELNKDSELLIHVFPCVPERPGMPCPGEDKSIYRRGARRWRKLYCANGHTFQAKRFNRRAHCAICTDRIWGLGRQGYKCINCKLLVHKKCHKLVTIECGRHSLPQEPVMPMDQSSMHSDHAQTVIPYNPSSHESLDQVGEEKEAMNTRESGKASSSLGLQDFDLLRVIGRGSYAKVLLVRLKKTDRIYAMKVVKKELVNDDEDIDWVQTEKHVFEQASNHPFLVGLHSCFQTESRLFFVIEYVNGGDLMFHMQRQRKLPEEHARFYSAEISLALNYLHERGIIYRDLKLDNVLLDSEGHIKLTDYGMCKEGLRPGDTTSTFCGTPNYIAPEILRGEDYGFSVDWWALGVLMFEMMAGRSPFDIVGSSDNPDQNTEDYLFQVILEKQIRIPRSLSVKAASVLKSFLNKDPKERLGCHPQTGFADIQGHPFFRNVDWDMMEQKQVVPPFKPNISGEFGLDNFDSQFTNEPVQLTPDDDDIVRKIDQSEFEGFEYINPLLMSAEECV
T9 sequence (P05771 whole entry): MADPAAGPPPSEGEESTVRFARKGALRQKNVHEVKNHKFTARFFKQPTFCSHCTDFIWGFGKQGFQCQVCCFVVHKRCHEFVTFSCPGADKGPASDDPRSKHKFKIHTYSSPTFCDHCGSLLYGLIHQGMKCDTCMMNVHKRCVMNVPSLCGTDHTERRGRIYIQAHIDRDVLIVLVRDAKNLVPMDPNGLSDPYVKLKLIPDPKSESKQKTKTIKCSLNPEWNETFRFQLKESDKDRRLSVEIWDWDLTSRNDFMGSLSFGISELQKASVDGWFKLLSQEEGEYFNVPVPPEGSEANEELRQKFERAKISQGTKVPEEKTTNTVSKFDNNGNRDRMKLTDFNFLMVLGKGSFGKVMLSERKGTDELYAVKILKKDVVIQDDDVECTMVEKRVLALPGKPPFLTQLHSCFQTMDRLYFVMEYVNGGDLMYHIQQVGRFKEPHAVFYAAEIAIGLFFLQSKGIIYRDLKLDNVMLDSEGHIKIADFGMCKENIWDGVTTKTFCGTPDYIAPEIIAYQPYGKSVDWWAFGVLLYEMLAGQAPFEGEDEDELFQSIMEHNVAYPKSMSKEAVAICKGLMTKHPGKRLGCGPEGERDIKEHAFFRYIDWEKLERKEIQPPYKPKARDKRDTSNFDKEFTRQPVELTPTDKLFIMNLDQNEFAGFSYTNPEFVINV
T3 sequence (P06493 whole entry): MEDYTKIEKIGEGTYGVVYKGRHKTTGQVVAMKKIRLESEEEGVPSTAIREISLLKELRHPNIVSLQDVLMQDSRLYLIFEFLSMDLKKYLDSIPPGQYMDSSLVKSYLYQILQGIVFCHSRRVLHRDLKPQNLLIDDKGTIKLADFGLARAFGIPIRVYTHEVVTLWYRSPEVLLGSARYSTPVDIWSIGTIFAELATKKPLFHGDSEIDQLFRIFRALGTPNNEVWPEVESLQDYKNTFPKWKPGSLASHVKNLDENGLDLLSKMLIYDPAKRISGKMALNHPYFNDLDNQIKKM
T3 sequence (P14635 whole entry partner): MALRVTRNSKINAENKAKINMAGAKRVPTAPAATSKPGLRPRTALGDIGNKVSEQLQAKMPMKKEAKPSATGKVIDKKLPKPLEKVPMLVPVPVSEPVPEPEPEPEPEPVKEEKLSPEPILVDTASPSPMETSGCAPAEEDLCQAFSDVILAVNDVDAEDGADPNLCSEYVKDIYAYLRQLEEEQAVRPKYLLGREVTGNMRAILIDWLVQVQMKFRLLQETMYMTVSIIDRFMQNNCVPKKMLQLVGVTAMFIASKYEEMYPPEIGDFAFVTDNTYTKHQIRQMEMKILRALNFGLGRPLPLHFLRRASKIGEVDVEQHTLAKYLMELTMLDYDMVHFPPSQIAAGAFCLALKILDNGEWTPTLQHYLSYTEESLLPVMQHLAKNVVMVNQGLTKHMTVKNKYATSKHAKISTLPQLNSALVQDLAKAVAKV

O=C(NCCCN1CCCC1)c1ccc(/C=C2\Sc3ccccc3N(Cc3ccccc3F)C2=O)cc1 [Compound 481, 4-{(Z/E)-[4-(2-fluorobenzyl)-3-oxo-3,4-dihydro-2H-1,4-benzothiazin-2-ylidene]methyl}-N-[3-(pyrrolidin-1-yl)propyl]benzamide]
> 20 µM: all assays above
